Laboratory results taken from US8906602B2, “Methods for identifying candidate compounds for treating, reducing, or preventing pathogenic infections” (The General Hospital Corporation, priority 2004, dated 2014).

How the values were obtained:
[1] = test system: pqsA-lacZ reporter; assay: pqsA-lacZ reporter induction in pqsA mutant cultures; type: cell-based, Pseudomonas aeruginosa pqsA mutant; settings: pqsA mutant background, compounds added at onset of culture at 10 mg/L
Source text: Activity is reported as Miller units (MU), corrected for the OD of the cultures at 600 nm.
(§1) P. aeruginosa strains include: wild type PA14 (Rahme et al., Science 268, 1899-1902, 1995); an mvfR mutant (Cao et al., Proc. Natl. Acad. Sci. USA 98, 14613 -8, 2001); 8C12, a TnphoA-insertion mutant of pqsB (Mahajan-Miklos et al., Cell 96, 47-56, 1999); and a lasR::Gm mutant, which was generated by allelic exchange using pSB219.9A as described (Beatson et al., J Bacteriol 184, 3598-604, 2002). A pqsE deletion mutant was generated via pEX18Ap allelic replacement, using sucrose selection, resulting in a 570 bp non-polar deletion covering 65% of the sequence (Hoang et al., Gene 212, 77-86, 1998). The pqsA (U479) TnphoA mutant was obtained from the PA14 Transposon Insertion Mutant Database. For complementation analysis, mvfR was cloned into pDN18 (Nunn et al., J. Bacteriol. 172, 1990). The reporter fusions phzABC-lacZ and hcnA′-lacZ have been described (Whiteley et al., J. Bacteriol. 182, 4356-60, 2000; Pessi et al., J. Bacteriol. 182, 6940-9, 2000). Plasmids were transformed into PA14 by electroporation (Smith et al., Nuc. Acid. Res. 17, 10509, 1989). Specific β-galactosidase activity was determined as reported (Miller, Cold Spring Harbor Laboratory, Cold Spring Harbor, N.Y., pp. 352-355 1972).

[2] = test system: phzABC-lacZ reporter; assay: phzABC-lacZ reporter activity after exogenous HHQ, wild-type PA14 cells; type: cell-based, Pseudomonas aeruginosa PA14; settings: wild-type PA14, 10 mg/L HHQ added to culture medium
Source text: To determine whether HHQ is itself involved in signal gene regulation, independently from PQS activity, or whether it functions solely as a PQS precursor, we asked whether exogenous HHQ can stimulate the activity of a phzABC-lacZ reporter carried by wild-type PA14 cells, and by lasR^− mutant cells.
as §1, with “The reporter fusions phzABC-lacZ and hcnA′-lacZ have been described (Whiteley et al., J. Bacteriol. 182, 4356-60, 2000; Pessi et al., J. Bacteriol. 182, 6940-9, 2000). Plasmids were transformed into PA14 by electroporation (Smith et al., Nuc. Acid. Res. 17, 10509, 1989).” left out, “1972). […]” for “1972).”

[3] = test system: pyocyanin production; assay: Pyocyanin production in pqs or mvfR mutant cultures; type: cell-based, Pseudomonas aeruginosa pqs or mvfR mutants; settings: addition to cultures of any pqs or mvfR mutants
Protocol: Whereas pqsA or pqsB inactivation abolish HAQ production, a pqsE mutant produces essentially normal HAQ levels (FIG. 12), and HAQ-related antibiotic activity (FIG. 6). […] Supporting this notion, mvfR overexpression gave excessive pyocyanin accumulation (FIG. 12). […] Such compounds would not be detected by our assay, which was aimed at extracellular compounds. Loss of these compounds might underlie the reduced pathogenicity of a pqsE mutant.
Bacteria were grown in Luria-Bertani broth or on 1.5% Bacto-agar (Difco) LB plates. Freshly plated cells served as inoculum. For pyocyanin production, bacteria were grown in King's A broth (King et al., J. Lab. Clin. Med. 44, 301, 1954) and the pyocyanin quantified as OD520 after supernatant extraction (Essar et al., J. Bacteriol. 172, 884-900, 1990). Tetracycline (75 mg/L), carbenicillin (300 mg/L), kanamycin (200 mg/L), and gentamicin (100 mg/L) were included as required.

[4] = Pesci et al. 1999; cited from earlier work
[5] = test system: Na^+-translocating NADH-quinone oxidoreductases; settings: Häse et al. 2001; cited from earlier work
[6] = test system: Bacillus subtilis; assay: Antimicrobial activity assay on well-plates (growth inhibition zones); type: cell-based; settings: well-plate, 60 μl of 25% methanol solution of test extract or pure HAQ, overnight 37° C.; FIG. 10
Source text: Bacillus subtilis growth on well plates was scored for inhibition by culture extracts of PA14 and the mvfR, pqsA, and pqsE mutant strains (left plate), and by purified PQS, HHQ and HQNO, versus PA14 extract (right plate).
Fluorescent pseudomonads, and perhaps just P. aeruginosa, are the only microorganisms identified to produce HAQs (Budzikiewicz, FEMS Microbiol. Rev. 104, 209-228, 1993; Lépine et al., Biochim. Biophys. Acta 1622, 36-40, 2003). Although their biological functions are unknown, many HAQs were initially isolated as antibiotics (Hays et al., J. Biol. Chem. 159, 725-750, 1945; Wells, J. Biol. Chem. 196, 331-340, 1952). We assayed the antimicrobial activity of total organic extracts from PA14 and mvfR, pqsA, and pqsE mutant strains, and purified PQS, HHQ and HQNO, against the Gram-positive species Staphylococcus aureus and Bacillus subtilis. […] Thus, MvfR regulates the production of antibiotics that can function in niche competition against other bacteria. Because the pqsE mutant and PA14 produce roughly the same levels of antimicrobial activity, these antibiotic compounds are probably HAQs, instead of other non-polar compounds whose synthesis is under PQS control.
HAQ antimicrobial activity was evaluated on well-plates. […] Plates were incubated overnight at 37° C. and scored for growth inhibition zones around the test wells.

[7] = test system: cytochrome; settings: Lightbown et al. 1956; cited from earlier work

Nc1ccccc1C(=O)O [AA, anthranilic acid]
pqsA-lacZ induction (LacZ activity) [1]: does not

CCCCCCCc1cc(O)c2ccccc2n1 [HHQ, 4-hydroxy-2-heptylquinoline]
β-galactosidase activity of phzABC-lacZ reporter [2]: induces significant and consistent levels of β-galactosidase activity | induction of pyocyanin production [3]: failed to induce pyocyanin production

CCCCCCCc1nc2ccccc2c(O)c1O [PQS, 3,4-dihydroxy-2-heptylquinoline]
antibiotic activity [4]: no antibiotic activity | pqsA-lacZ induction (LacZ activity) [1]: activates pqsA transcription | induction of pyocyanin production [3]: failed to induce pyocyanin production

CCCCCCCc1cc(O)c2ccccc2[n+]1[O-] [HQNO, 4-hydroxy-2-heptylquinoline N-oxide]
inhibition of Na^+-translocating NADH-quinone oxidoreductases [5]: inhibits | antimicrobial activity (growth inhibition) [6]: specific antibacterial activity | cytochrome inhibition [7]: widely used cytochrome inhibitor
